Patent US9782522B2, “Compositions and methods for treating and preventing neointimal stenosis” (Yale University, priority 2011, dated 2017)

Tests used:
HUAEC = experiment: qRT-PCR mRNA expression of TGFβ signaling and Endo-MT markers in endothelial cells; type: cell-based, human; conditions: FRS2 knockdown EC; 10 μM
Description: Human 293T T17 cells (ATCC CRL-11268) were maintained in Dulbecco's modified Eagle's medium (Gibco) with 10% fetal bovine serum (Invitrogen) and penicillinstreptomycin (Gibco). Primary human mammary epithelial cells (HuMEC, Invitrogen), were maintained in HuMEC basal serum free medium with HuMEC supplement (Invitrogen 12754-016) and bovine pituitary extract (Invitrogen 13028-014). Human foreskin cells (ATCC CRL-1079Sk) were maintained in Minimum Essential Medium (ATCC) with 10% fetal bovine serum (Hyclone), β-mercaptoethanol (Sigma), and penicillin-streptomycin (Gibco). Primary human atrial cells (passage 3-5; gift from Y. Qyang, Yale University School of Medicine) were maintained in Dulbecco's modified Eagle's medium (Gibco) with 10% fetal bovine serum (Invitrogen), L-glutamine (Gibco), Sodium pyruvate (Gibco), Non-essential amino acid (Gibco), and penicillin-streptomycin (Gibco). HUAEC (human umbilical artery endothelial cells, passage 5-10, Lonza) were cultured in EBM-2 supplemented with EGM-2-MV bullet kit (Lonza). HUVEC (human umbilical vein endothelial cells, passage 3-7, Yale Vascular Biology and Therapeutics) were cultured in M199 with ECGS, supplemented with 20% FBS (Sigma), L-glutamine (Gibco), and penicillin-streptomycin (Gibco). Culture vessels were coated with 0.1% gelatin (Sigma) for 30 min at 37° C. immediately prior to cell seeding. Primary mouse endothelial cells were isolated from the heart using rat anti-mouse CD31 antibody and Dynabeads (Invitrogen) as previously described (Partovian C, et al. Mol Cell. 32(1):140 (2008)).
RNA was isolated using RNeasy® plus Mini Kit (Qiagen) and converted to cDNA using iScript™ cDNA synthesis kit (Bio-Rad). Quantitative real-time PCR (qRT-PCR) was performed using Bio-Rad […] (Bio-Rad) by mixing equal amount of eDNAs, iQ™ SYBR® Green Supermix (Bio-Rad) and gene specific primers. All reactions were done in a 25 μl reaction volume in duplicate. Data were normalized to endogenous β-actin. Values are expressed as fold change in comparison to control. Mouse TGFβ gene expression was quantified via qRT-PCR with TaqMan® Gene Expression Assays (Mm00441726_m1; Applied Biosystems) and HPRT (Mm00441258_1; Applied Biosystems) as endogenous control followed the manufacturer's recommendation. Quantitative PCR analysis of 84 TGFβ and epithelial to mesenchymal transition (EMT) related genes were performed using Human TGFβ BMP signaling pathway (PAHS-035D, QIAGEN) and Human Epithelial to Mesenchymal Transition (PAHS-090D, QIAGEN) RT^2 Profiler™ PCR Arrays following the manufacturer's protocol. RT^2 Profiler™ PCR arrays were run on a Bio-Rad CFX96 machine (Bio-Rad). Duplicate arrays were run per condition for control and FRS2 knockdown human umbilical arterial endothelial cells (HUAEC). Data analysis was performed using the manufacturer's integrated web-based software package for the PCR Array System using cycle threshold (Ct)-based fold-change calculations.
Recombinant human FGF2 (R&D) and TGFβ1 (Peprotech) were reconstituted in 0.1% BSA/PBS. U0126 (Sigma), a MEK inhibitor, was reconstituted in DMSO and used at a final concentration of 10 μM. SB431542 (Sigma), a TGFBR1 kinase inhibitor, was reconstituted in DMSO and used at a final concentration of 10 μM in cell culture. Actinomycin D (Sigma), a DNA transcription suppressor, was reconstituted in acetone and used at a final concentration of 10 μg/ml in cell culture. […]

[1] = test system: constitutively active ALK-4, ALK-5, and ALK-7; set-up: dose or concentration left out as unconfirmed; conditions: transfected NIH 3T3 cells; cited from earlier work

In the case of `NC(=O)c1ccc(-c2nc(-c3ccc4c(c3)OCO4)c(-c3ccccn3)[nH]2)cc1` [SB431542, 4-[4-(1,3-Benzodioxol-5-yl)-5-(2-pyridinyl)-1H-imidazol-2-yl]-benzamide], the SM-calponin expression (HUAEC) is reported as “significantly decreased”, the fibronectin expression (HUAEC) is reported as “significantly decreased” and the vimentin expression (HUAEC) is reported as “significantly decreased”. For the same compound, the “Phosphorylation of Smad2 by constitutively active ALK-4, ALK-5, and ALK-7” value [1] was “completely abolished”.
